Assay results reported in article PMC10243163, “A frog‐derived antimicrobial peptide as a potential anti‐biofilm agent in combating Staphylococcus aureus skin infection” (Journal of Cellular and Molecular Medicine, 2023).
In brackets after ≈: the same amount, converted by molar mass. Where two headings read alike, the source gives them in different places. Positions of bridges follow the written chain, without caps; N, C: chain ends. Residues, ends and D or L forms follow the SMILES beside them. No end group written: not given here.

Key:
[1] = system: S. aureus ATCC 6538; assay type: cell-based, Staphylococcus aureus
Description: (§1) Antimicrobial assays were conducted using standard broth micro‐dilutions, as mentioned previously.[11] Gram‐positive bacteria S. aureus (ATCC 6538), Methicillin‐resistant S. aureus (MRSA; NCTC 12493), […] (NCTC 12697), Gram‐negative bacteria Escherichia coli (ATCC 8739), Klebsiella pneumoniae (ATCC 43816), Pseudomonas aeruginosa (ATCC 9027), Acinetobacter baumannii (ATCC BAA 747), and yeast, Candida albicans (ATCC 10231) were used in the test. The experiments were conducted in three independent runs.

[2] = system: MRSA NCTC 12493; assay type: cell-based, Methicillin‐resistant S. aureus
Description: as §1

[3] = system: E. faecalis NCTC 12697; assay type: cell-based
[4] = system: E. coli ATCC 8739; assay type: cell-based, Escherichia coli
Description: as §1

[5] = system: K. pneumoniae ATCC 43816; assay type: cell-based, Klebsiella pneumoniae
Description: as §1

[6] = system: P. aeruginosa ATCC 9027; assay type: cell-based, Pseudomonas aeruginosa
Description: as §1

[7] = system: C. albicans ATCC 10231; assay type: cell-based, Candida albicans
Description: as §1

[8] = system: Gram‐positive and Gram‐negative test bacteria; assay type: cell-based
Description: as §1

[9] = system: horse erythrocytes; assay: Haemolytic activity; assay type: cell-based; settings: 128 μM peptide; horse erythrocytes 2% v/v, 37°C, 2 h; 0.1% Triton X‐100 positive control; absorbance 570 nm; three independent runs
Description: The haemolytic activity of peptides was conducted using horse erythrocytes (2%, v/v). Peptide solutions were mixed with washed horse erythrocyte suspension at 37°C for 2 h. Triton X‐100 (0.1%) was used as a positive control. The mixture was then centrifuged at 930 g for 5 min. The absorbance of the supernatants was detected at 570 nm. The haemolysis rate was calculated using the formula: Haemolysis%=Sample group−negative group/positive group−negative group×100%.
This experiment was performed in three independent runs.

[10] = system: Gram‐positive and Gram‐negative test bacteria; assay type: cell-based; settings: geometric mean of MICs against the three Gram‐negative strains
[11] = system: MRSA NCTC 12493; assay: Ex vivo porcine skin infection model; parameters: species or system Methicillin‐resistant S. aureus; settings: vancomycin 8 μM, 4 h
Description: The antibacterial efficacy of OG9 and OG9c‐De‐NH2 was further evaluated in an ex vivo porcine skin model, as reported.[27] The porcine skin was shaved and cleaned with 70% ethanol and dd H2O. The polyethylene tubing was glued to the cleaned skin surface with cyanoacrylate glue. Exponential or persister cells were inoculated to infect each skin sample. After 15 min of incubation at 37°C, each skin sample was treated with peptides at concentrations of 1 × or 10 × MIC or vancomycin (8 μM). After another 4 h of incubation, each tubing well was washed with PBS. Ten microliters of the mixture in each well was diluted with PBS buffer and spotted on the agar plate. The number of viable bacteria cells was counted after overnight incubation. The experiments were conducted in three independent runs.

[12] = system: S. aureus ATCC 6538; assay type: cell-based, Staphylococcus aureus; settings: ATCC 6538, 24 h
Description: (§2) Peptide solutions were first mixed with bacterial cultures (5 × 10^5 CFU/mL) and incubated at 37°C for 24 h. The planktonic bacterial cells were gently removed by washing with PBS the next day, and methanol was utilised to fix the biofilm. Crystal violet (0.1% v/v), PBS and acetic acid (30%, v/v) were subsequently used to stain biofilm, remove remaining stains and re‐dissolve stains, respectively. The absorbance was determined at 595 nm. The experiments were conducted in three independent runs.

[13] = system: MRSA NCTC 12493; assay type: cell-based, Methicillin‐resistant S. aureus; settings: NCTC 12493, 24 h
Description: as §2

[14] = system: E. faecalis NCTC 12697; assay type: cell-based; settings: NCTC 12697, 24 h
Description: as §2

[15] = system: E. coli ATCC 8739; assay type: cell-based, Escherichia coli; settings: ATCC 8739, 24 h
Description: as §2

[16] = system: P. aeruginosa ATCC 9027; assay type: cell-based, Pseudomonas aeruginosa; settings: ATCC 9027, 24 h
Description: as §2

[17] = geometric mean of MICs against all test bacteria
[18] = geometric mean of MICs against the three Gram‐positive strains

| Compound | MBC [1] | MIC [1] | MBC [2] | MIC [2] | MBC [3] | MIC [3] | MBC [4] | MIC [4] | MBC [5] | MIC [5] | MBC [6] | MIC [6] | MBC [7] | MIC [7] | GM MIC, total bacteria [8, 17] | GM MIC, G+ [8, 18] | Haemolysis [9] | GM MIC, G− [10] | further results |
| --- | --- | --- | --- | --- | --- | --- | --- | --- | --- | --- | --- | --- | --- | --- | --- | --- | --- | --- | --- |
| CC[C@H](C)[C@@H]1NC(=O)[C@H](C)NC(=O)[C@@H](NC(=O)[C@H](CC(C)C)NC(=O)[C@@H](NC(=O)[C@H](CCCCN)NC(=O)[C@@H]2CCCN2C(=O)[C@H](CC(C)C)NC(=O)[C@H](Cc2ccccc2)NC(=O)[C@H](CC(N)=O)NC(=O)[C@H](C)NC(=O)[C@H](C)NC(=O)[C@H](CC(C)C)NC(=O)CNC(=O)[C@H](C)NC(=O)[C@@H](NC(=O)[C@H](CC(C)C)NC(=O)[C@@H]2CCCN2C(=O)[C@@H](N)Cc2ccccc2)[C@@H](C)CC)[C@@H](C)CC)CSSC[C@@H](C(=O)O)NC(=O)[C@H](CCCCN)NC(=O)[C@H](CCCNC(=N)N)NC(=O)[C@H](C)NC1=O [OG9a] (H-FPLIAGLAANFLPKILCAIARKC-OH; disulfide 17-23) | 8 µM (≈ 19.5 µg/mL) | 4 µM (≈ 9.77 µg/mL) | 16 µM (≈ 39.1 µg/mL) | 16 µM (≈ 39.1 µg/mL) | 16 µM (≈ 39.1 µg/mL) | 16 µM (≈ 39.1 µg/mL) | 8 µM (≈ 19.5 µg/mL) | 8 µM (≈ 19.5 µg/mL) | 16 µM (≈ 39.1 µg/mL) | 16 µM (≈ 39.1 µg/mL) | > 128 µM | > 128 µM | > 128 µM | > 128 µM | 20.2 µM | 10.1 µM | 90% | 40.3 µM | – |
| CC[C@H](C)[C@@H]1NC(=O)[C@H](C)NC(=O)[C@@H](NC(=O)[C@H](CC(C)C)NC(=O)[C@@H](NC(=O)[C@H](CCCCN)NC(=O)[C@@H]2CCCN2C(=O)[C@H](CC(C)C)NC(=O)[C@H](Cc2ccccc2)NC(=O)[C@H](CC(N)=O)NC(=O)[C@H](C)NC(=O)[C@H](CCCCN)NC(=O)[C@H](CC(C)C)NC(=O)CNC(=O)[C@H](C)NC(=O)[C@@H](NC(=O)[C@H](CC(C)C)NC(=O)[C@@H]2CCCN2C(=O)[C@@H](N)Cc2ccccc2)[C@@H](C)CC)[C@@H](C)CC)CSSC[C@@H](C(=O)O)NC(=O)[C@H](CCCCN)NC(=O)[C@H](CCCNC(=N)N)NC(=O)[C@H](C)NC1=O [OG9b] (H-FPLIAGLKANFLPKILCAIARKC-OH; disulfide 17-23) | 128 µM (≈ 320 µg/mL) | 64 µM (≈ 160 µg/mL) | > 128 µM | > 128 µM | > 128 µM | > 128 µM | 8 µM (≈ 20 µg/mL) | 8 µM (≈ 20 µg/mL) | 16 µM (≈ 40 µg/mL) | 16 µM (≈ 40 µg/mL) | 64 µM (≈ 160 µg/mL) | 32 µM (≈ 80 µg/mL) | > 128 µM | > 128 µM | 50.8 µM | 161.3 µM | 50% | 16 µM | – |
| CC[C@H](C)[C@@H]1NC(=O)CNC(=O)[C@@H](NC(=O)[C@H](CC(C)C)NC(=O)[C@@H](NC(=O)[C@H](CCCCN)NC(=O)[C@@H]2CCCN2C(=O)[C@H](CC(C)C)NC(=O)[C@H](Cc2ccccc2)NC(=O)[C@H](CCCCN)NC(=O)[C@H](C)NC(=O)[C@H](C)NC(=O)[C@H](CC(C)C)NC(=O)[C@H](CCCNC(=N)N)NC(=O)[C@H](C)NC(=O)[C@@H](NC(=O)[C@H](CC(C)C)NC(=O)[C@@H]2CCCN2C(=O)[C@@H](N)Cc2ccccc2)[C@@H](C)CC)[C@@H](C)CC)CSSC[C@@H](C(=O)O)NC(=O)[C@H](CCCCN)NC(=O)[C@H](CC(N)=O)NC(=O)[C@H](C)NC1=O [OG9c] (H-FPLIARLAAKFLPKILCGIANKC-OH; disulfide 17-23) | 4 µM (≈ 10 µg/mL) | 4 µM (≈ 10 µg/mL) | 8 µM (≈ 20 µg/mL) | 8 µM (≈ 20 µg/mL) | 16 µM (≈ 40 µg/mL) | 16 µM (≈ 40 µg/mL) | 4 µM (≈ 10 µg/mL) | 4 µM (≈ 10 µg/mL) | 8 µM (≈ 20 µg/mL) | 8 µM (≈ 20 µg/mL) | 16 µM (≈ 40 µg/mL) | 16 µM (≈ 40 µg/mL) | 64 µM (≈ 160 µg/mL) | 64 µM (≈ 160 µg/mL) | – | – | – | – | GM MIC, G+ [8]: 8/8/8 μM; GM MIC, G− [8]: 8/8/8 μM; GM MIC, total bacteria [8]: 8/8/8 μM |
| CN[C@H](CC(C)C)C(=O)N[C@H]1C(=O)N[C@@H](CC(N)=O)C(=O)N[C@H]2C(=O)N[C@H]3C(=O)N[C@H](C(=O)N[C@H](C(=O)O)c4cc(O)cc(O)c4-c4cc3ccc4O)[C@H](O)c3ccc(c(Cl)c3)Oc3cc2cc(c3O[C@@H]2O[C@H](CO)[C@@H](O)[C@H](O)[C@H]2O[C@H]2C[C@](C)(N)[C@H](O)[C@H](C)O2)Oc2ccc(cc2Cl)[C@H]1O [Vancomycin] | – | – | – | – | – | – | – | – | – | – | – | – | – | – | – | – | – | – | Ex vivo effect on exponential MRSA cells [11]: weak inhibiting effect |
| FPLIAGLAANFLPKIL [OG9‐De] | > 128 µM | > 128 µM | > 128 µM | > 128 µM | > 128 µM | > 128 µM | > 128 µM | > 128 µM | > 128 µM | > 128 µM | > 128 µM | > 128 µM | > 128 µM | > 128 µM | – | – | no apparent haemolysis | – | – |
| FPLIAGLAANFLPKIL-NH2 [OG9‐De‐NH2] | > 128 µM | > 128 µM | > 128 µM | > 128 µM | > 128 µM | > 128 µM | > 128 µM | > 128 µM | > 128 µM | > 128 µM | > 128 µM | > 128 µM | > 128 µM | > 128 µM | – | – | no apparent haemolysis | – | – |
| FPLIARLAAKFLPKIL [OG9c‐De] | 16 µM | 16 µM | 16 µM | 16 µM | 64 µM | 64 µM | 16 µM | 16 µM | 32 µM | 32 µM | 64 µM | 16 µM | 16 µM | 16 µM | – | – | – | – | GM MIC, G+ [8]: 25.4 µM; GM MIC, G− [8]: 20.2 µM; GM MIC, total bacteria [8]: 22.6 µM |
| FPLIARLAAKFLPKIL-NH2 [OG9c‐De‐NH2] | 2/2 μM | – | 2 µM | 2 µM | 8 µM | 8 µM | 2 µM | 2 µM | 4 µM | 4 µM | 8 µM | 8 µM | 16 µM | 16 µM | 3.6 µM | 3.2 µM | – | 4 µM | MBIC [12]: 1 µM; MBIC [13]: 1 µM; MBIC [14]: 16 µM; MBIC [15]: 16 µM; MBIC [16]: 64 µM |
